# Assay results as given in patent US20240409505A1, “GLUCONAMIDE SULFATE SURFACTANTS” (The Procter & Gamble Company, priority 2023, published 2024).
# Structures can show the parent of a compound that is named as a salt.
# Test: Final product mixed with Deionized Water at room temperature
# Assay type: physicochemical
# Conditions: 0.0130 g of final product mixed with 1.287 g of Deionized Water at room temperature
# Excerpt: Vacuum filtered solution through Grade 4 filter paper to obtain a clear, colorless solution. […] The solution was concentrated using a rotary evaporator until mixture began to foam, then solution was transferred to a glass crystallizing dish and placed in a vacuum oven at room temperature under a partial vacuum of 3 inches of Hg internal oven pressure.
row,Compound,appearance of mixture with Deionized Water (solubility)
1,"CCCCCCCCCCCCCCCCNC(=O)[C@H](O)[C@@H](O)[C@H](O)[C@H](O)COS(=O)(=O)O [Example 3, Sodium (2R,3R,4S,5R)-6-(hexadecylamino)-2,3,4,5-tetrahydroxy-6-oxohexyl sulfate]","completely clear, colorless solution that foamed when shaken"
2,"CCCCCCCCCCCCCCNC(=O)[C@H](O)[C@@H](O)[C@H](O)[C@H](O)COS(=O)(=O)O [Example 2, Sodium (2R,3R,4S,5R)-6-(tetradecylamino)-2,3,4,5-tetrahydroxy-6-oxohexyl sulfate]","completely clear, colorless solution that foamed when shaken"
3,"O=C(NCc1ccccc1)[C@H](O)[C@@H](O)[C@H](O)[C@H](O)COS(=O)(=O)O [Example 7, Sodium (2R,3R,4S,5R)-6-(benzylamino)-2,3,4,5-tetrahydroxy-6-oxohexyl Sulfate]","completely clear, colorless solution that foamed when shaken"
4,"CCCCCCCC/C=C\CCCCCCCCNC(=O)[C@H](O)[C@@H](O)[C@H](O)[C@H](O)COS(=O)(=O)O [Example 4, Sodium (2R,3R,4S,5R)-2,3,4,5-tetrahydroxy-6-(((Z)-octadec-9-en-1-yl)amino)-6-oxohexyl sulfate]","completely clear, colorless solution that foamed when shaken"
5,"CCCCCCCCCCCCNC(=O)[C@H](O)[C@@H](O)[C@H](O)[C@H](O)COS(=O)(=O)O [Example 1, Sodium (2R,3R,4S,5R)-6-(dodecylamino)-2,3,4,5-tetrahydroxy-6-oxohexyl sulfate]","completely clear, colorless solution that foamed when shaken"
6,"Sodium (2R,3R,4S,5R)-6-((2-1H-indol-2-yl)ethyl) amino)-2,3,4,5-tetrahydroxy-6-Oxohexyl Sulfate [Example 8]","completely clear, colorless solution that foamed when shaken"
